This passage reports EC50 and IC50 results from US7365221B2, “Monoacylated betulin and dihydrobetulin derivatives, preparation thereof and use thereof” (priority 2002, dated 2008).

Structures are written as SMILES. Read-outs that look alike come from different tables or passages of the source.

Data set [1] relates to HIV-1 (IIIB isolate). It is filed as cell-based. To be noted: average of at least two experiments; cell line not stated; read-out: Anti-HIV Activity EC50. How it is done: (§1) The biological evaluation of HIV-1 inhibition was carried out as follows according to established protocols (Montefiori et al., Clin Microbiol. 26:231-235 (1988)). The human T-cell line, MT-2, was maintained in continuous culture with complete medium (RPMI 1640 with 10% fetal calf serum supplemented with L-glutamine at 5% CO2 and 37° C.). Test samples were first dissolved in dimethyl sulfoxide at a concentration of 10 mg/ml to generate master stocks with dilutions made into tissue culture media to generate working stocks. The following drug concentrations were routinely used for screening: 100, 20, 4 and 0.8 μg/ml. For agents found to be active, additional dilutions were prepared for subsequent testing so that an accurate EC50 value (defined below) could be determined. Test samples were prepared and to each sample well was added 90 μl of media containing MT-2 cells at 3×10^5 cells/ml and 45 μl of virus inoculum (HIV-1 IIIIB isolate) at a concentration necessary to result in 80% killing of the cell targets at 5 days post-infection (PI). Control wells containing virus and cells only (no drug) and cells only (no virus or drug) were also prepared. A second set of samples were prepared identical to the first and were added to cells under identical conditions without virus (mock infection) for toxicity determinations (IC50 defined below). In addition, AZT was also assayed during each experiment as a positive drug control. On day 5 PI, virus-induced cell killing was determined by measuring cell viability using the XTT method. Compound toxicity was determined by XTT using the mock-infected samples. If a test sample had suppressive capability and was not toxic, its effects were reported in the following terms: IC50, the concentration of test sample which was toxic to 50% of the mock-infected MT-2 cells; EC50, the concentration of the test sample that was able to suppress HIV replication by 50%; and the Therapeutic index (TI) the ratio of the IC50 to EC50.
(§2) Compounds of the present invention were assayed for anti-HIV activity according to the following assay procedures. The T cell line, H9, and the promonocytic cell line, U937, were maintained separately in continuous culture with complete medium (RPMI 1640 with 10% fetal calf serum) at 5% CO2 and 37° C. The cell lines were used in experiments only when in the logarithmic phase of growth, whereas uninfected peripheral blood mononuclear cells (PBMCs) were first stimulated with PHA (1 μg/mL) for three days. All cell targets were incubated with HIV-1 (IIIB isolate, 1×10^6 TCID50/mL) for one hour at 37° C. and 5% CO2. The cell lines and PBMCs were washed thoroughly to remove unadsorbed virions and resuspended at 4×10^5 cells/mL in complete medium or complete medium with 10% v/v interleukin 2 (IL-2), respectively. 100 μL aliquots were placed into wells of 96-well tissue culture plates containing an equal volume of test compounds (diluted in the appropriate culture medium). The toxicity of each compound was assessed by determining the number of compound-exposed uninfected cells that remained after five days at 37° C. and 5% CO2. A p24 antigen ELISA assay was used to determine the level of virus released in the medium of the HIV-infected cultures. […] The cutoff for the p24 ELISA assay was 12.5 pg/mL. p24 in the culture medium was quantitated against a standard curve containing known amounts of p24. The effective (EC50) and inhibitory (IC50) concentrations for anti-HIV activity and cytotoxicity, respectively, were determined.

For data set [2], the system named is uninfected cells. The experiment in a line: Cytotoxicity on compound-exposed uninfected cells. How it is done:
as §1, §2

Data set [3] deals with HIV-1 replication in H9 lymphocyte cells. To be noted: Fujioka et al. 1994, cited from earlier work.
Setting [4] is: H9 lymphocyte cells, read-out: EC50, inhibitory activity against HIV-1 replication.
[5] abbreviates: read-out: Cytotoxicity IC50, average of at least two experiments, uninfected cells.

`C=C(C)[C@@H]1CC[C@]2(CO)CC[C@]3(C)[C@H](CC[C@@H]4[C@@]5(C)CC[C@H](OC(=O)CC(C)(C)CC(=O)O)C(C)(C)[C@@H]5CC[C@]43C)[C@@H]12` [Compound 8]: in data set [1], the EC50 (commonly the concentration that produces a half-maximal response) was 4.4 nM. Besides, the midpoint of inhibition in data set [2], the IC50, lay at 28900 nM.

For the compound `CC(=O)[C@@H]1CC[C@]2(C(=O)O)CC[C@]3(C)[C@H](CC[C@@H]4[C@@]5(C)CC[C@H](O)C(C)(C)[C@@H]5CC[C@]43C)[C@@H]12` [platanic acid], the EC50 in data set [3] (setting [4]) was 6500 nM.

As for `CC(C)[C@@H]1CC[C@]2(C(=O)O)CC[C@]3(C)C(CCC4[C@@]5(C)CC[C@H](O)C(C)(C)C5CC[C@]43C)C12` (stereo partly shown) [dihydrobetulinic acid], the EC50 in data set [3] (unit inferred, read-out: EC50, anti-HIV activity) was 900 nM.

As for `C=C(C)[C@@H]1CC[C@]2(CO)CC[C@]3(C)[C@H](CC[C@@H]4[C@@]5(C)CC[C@H](OC(=O)COCC(=O)O)C(C)(C)[C@@H]5CC[C@]43C)[C@@H]12` [Compound 12], in data set [1], the concentration for a half-maximal effect (EC50) was determined as 24.6 nM. The IC50 (commonly the point on the concentration scale where inhibition reaches its midpoint) in data set [2] is over 44800 nM.

As to `C=C(C)[C@@H]1CC[C@]2(C(=O)O)CC[C@]3(C)[C@H](CC[C@@H]4[C@@]5(C)CC[C@H](O)C(C)(C)[C@@H]5CC[C@]43C)[C@@H]12` [Betulinic acid, betulinic acid], in data set [3] (setting [4]), the EC50 was 1400 nM.

For the compound `C=C(C)[C@@H]1CC[C@]2(CO)CC[C@]3(C)[C@H](CC[C@@H]4[C@@]5(C)CC[C@H](OC(=O)CCCC(=O)OCC)C(C)(C)[C@@H]5CC[C@]43C)[C@@H]12` [Compound 18, 3-O-glutaryl betulin ethyl ester], the EC50 in data set [1] came to 16.9 nM. Besides, in data set [2] (setting [5]), the IC50 worked out at 36400 nM.

As for `C=C(C)[C@@H]1CC[C@]2(CO)CC[C@]3(C)[C@H](CC[C@@H]4[C@@]5(C)CC[C@H](OC(=O)CCCC(=O)O)C(C)(C)[C@@H]5CC[C@]43C)[C@@H]12` [Compound 10, 3-O-glutaryl betulin], the concentration for a half-maximal effect (EC50) in data set [1] is 66.2 nM. The IC50 in data set [2] (setting [5]) was 44400 nM.

For the compound `C=C(C)[C@@H]1CC[C@]2(CO)CC[C@]3(C)[C@H](CC[C@@H]4[C@@]5(C)CC[C@H](OC(=O)CC(C)(C)C(=O)O)C(C)(C)[C@@H]5CC[C@]43C)[C@@H]12` [Compound 6], in data set [1], the EC50 is 5.6 nM. Moreover, it took 33500 nM to reach half-maximal inhibition in data set [2] (IC50).
